One molecule from paper PMC5474940 (Biochemistry, 2017) can be followed below.

In the assay the test system is AcOSα-PaFSα. Format: biochemical, Aspergillus clavatus. The conditions noted are these: read-out: AcOSα-PaFSα; labelled compound; 25 mM HEPES pH 8.0, 200 mM NaCl, 5 mM MgCl2, 30 °C; cyclase domain.

As to `CC(C)=CCC/C(C)=C/CC/C(C)=C/CC/C(C)=C/COP(=O)(O)OP(=O)(O)O` [GGPP], the Km amounted to 0.038 ± 0.01 µM.
